Source: ChEMBL document CHEMBL1201862, “PubChem BioAssay data set” (2004)
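Five compound concentrations were applied to cells in 96-well plates for 48 hours; endpoints were derived by simple linear interpolation of the resulting dose-response curve. GI50: concentration for 50% inhibition of growth.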 Activity calls are given as the source filed them. Cut-off read from the data, not from the text of the source: active = GI50 up to about 1.1 µM and inactive = higher.

Columns and labels:
Experiment in all cases: NCI tumour cell line growth inhibition, 48 h
[1] = test system: A498
[2] = test system: OVCAR-4
[3] = test system: MCF7
[4] = test system: CCRF-CEM
[5] = test system: KM12
[6] = test system: K562
[7] = test system: SF-295
[8] = test system: MOLT-4
[9] = test system: EKVX
[10] = test system: BT-549
[11] = test system: Hs-578T
[12] = test system: U-251
[13] = test system: HT-29
[14] = test system: UO-31
[15] = test system: HCC 2998
[16] = test system: OVCAR-8
[17] = test system: CAKI-1
[18] = test system: A549
[19] = test system: NCI/ADR-RES
[20] = test system: TK-10
[21] = test system: OVCAR-3
[22] = test system: RXF 393
[23] = test system: NCI-H460
[24] = test system: NCI-H226
[25] = test system: LOX IMVI
[26] = test system: SK-OV-3
[27] = test system: RPMI-8226
[28] = test system: SF-268
[29] = test system: ACHN
[30] = test system: SN12C
[31] = test system: NCI-H23
[32] = test system: HOP-92
[33] = test system: MDA-N
[34] = test system: SK-MEL-2
[35] = test system: NCI-H522
[36] = test system: SW-620
[37] = test system: HOP-62
[38] = test system: SK-MEL-28
[39] = test system: IGROV-1
[40] = test system: DU-145
[41] = test system: COLO 205
[42] = test system: HCT-15
[43] = test system: SF-539
[44] = test system: 786-0
[45] = test system: OVCAR-5
[46] = test system: HCT-116
[47] = test system: HL-60
[48] = test system: UACC-257
[49] = test system: SNB-19
[50] = test system: PC-3
[51] = test system: SR
[52] = test system: SK-MEL-5
[53] = test system: M14
[54] = test system: T47D
[55] = test system: Malme-3M
[56] = test system: SNB-75
[57] = test system: MDA-MB-435
[58] = test system: UACC-62
[59] = test system: MDA-MB-231

CNNC(=NS(=O)(=O)c1cc(C#N)c(NNC)cc1S)NNC
GI50 [1]: > 10 µM (inactive)
GI50 [2]: > 10 µM (inactive)
GI50 [3]: > 10 µM (inactive)
GI50 [4]: > 10 µM (inactive)
GI50 [5]: > 10 µM (inactive)
GI50 [6]: > 10 µM (inactive)
GI50 [7]: > 10 µM (inactive)
GI50 [8]: > 10 µM (inactive)
GI50 [9]: > 10 µM (inactive)
GI50 [10]: > 10 µM (inactive)
GI50 [11]: > 10 µM (inactive)
GI50 [12]: > 10 µM (inactive)
GI50 [13]: > 10 µM (inactive)
GI50 [14]: > 10 µM (inactive)
GI50 [15]: > 10 µM (inactive)
GI50 [16]: > 10 µM (inactive)
GI50 [17]: > 10 µM (inactive)
GI50 [18]: > 10 µM (inactive)
GI50 [19]: > 10 µM (inactive)
GI50 [20]: > 10 µM (inactive)
GI50 [21]: > 10 µM (inactive)
GI50 [22]: > 10 µM (inactive)
GI50 [23]: > 10 µM (inactive)
GI50 [24]: > 10 µM (inactive)
GI50 [25]: > 10 µM (inactive)
GI50 [26]: > 10 µM (inactive)
GI50 [27]: > 10 µM (inactive)
GI50 [28]: > 10 µM (inactive)
GI50 [29]: > 10 µM (inactive)
GI50 [30]: > 10 µM (inactive)
GI50 [31]: > 10 µM (inactive)
GI50 [32]: > 10 µM (inactive)
GI50 [33]: > 10 µM (inactive)
GI50 [34]: > 10 µM (inactive)
GI50 [35]: > 10 µM (inactive)
GI50 [36]: > 10 µM (inactive)
GI50 [37]: > 10 µM (inactive)
GI50 [38]: > 10 µM (inactive)
GI50 [39]: > 10 µM (inactive)
GI50 [40]: > 10 µM (inactive)
GI50 [41]: > 10 µM (inactive)
GI50 [42]: > 10 µM
GI50 [43]: > 10 µM (inactive)
GI50 [44]: > 10 µM (inactive)
GI50 [45]: > 10 µM (inactive)
GI50 [46]: > 10 µM (inactive)
GI50 [47]: > 10 µM (inactive)
GI50 [48]: > 10 µM (inactive)
GI50 [49]: > 10 µM (inactive)
GI50 [50]: > 10 µM (inactive)
GI50 [51]: > 10 µM (inactive)
GI50 [52]: > 10 µM (inactive)
GI50 [53]: > 10 µM (inactive)
GI50 [54]: > 10 µM (inactive)
GI50 [55]: > 10 µM (inactive)
GI50 [56]: > 10 µM (inactive)

Cc1cc(S(=O)(=O)Nc2nncn2-c2ccc(Cl)cc2)c(S)cc1Cl
GI50 [1]: > 10 µM (inactive)
GI50 [2]: > 10 µM (inactive)
GI50 [3]: > 10 µM (inactive)
GI50 [4]: > 10 µM (inactive)
GI50 [5]: > 10 µM (inactive)
GI50 [57]: > 10 µM (inactive)
GI50 [6]: > 10 µM (inactive)
GI50 [7]: > 10 µM (inactive)
GI50 [8]: > 10 µM (inactive)
GI50 [9]: > 10 µM (inactive)
GI50 [10]: > 10 µM (inactive)
GI50 [11]: > 10 µM (inactive)
GI50 [12]: > 10 µM (inactive)
GI50 [58]: > 10 µM (inactive)
GI50 [13]: > 10 µM (inactive)
GI50 [15]: > 10 µM (inactive)
GI50 [16]: > 10 µM (inactive)
GI50 [17]: > 10 µM (inactive)
GI50 [59]: > 10 µM (inactive)
GI50 [18]: > 10 µM (inactive)
GI50 [19]: > 10 µM (inactive)
GI50 [20]: > 10 µM (inactive)
GI50 [21]: > 10 µM (inactive)
GI50 [22]: > 10 µM (inactive)
GI50 [23]: > 10 µM (inactive)
GI50 [24]: > 10 µM (inactive)
GI50 [25]: > 10 µM (inactive)
GI50 [26]: > 10 µM (inactive)
GI50 [27]: > 10 µM (inactive)
GI50 [28]: > 10 µM (inactive)
GI50 [29]: > 10 µM (inactive)
GI50 [30]: > 10 µM (inactive)
GI50 [31]: > 10 µM (inactive)
GI50 [33]: > 10 µM (inactive)
GI50 [34]: > 10 µM (inactive)
GI50 [35]: > 10 µM (inactive)
GI50 [36]: > 10 µM (inactive)
GI50 [37]: > 10 µM (inactive)
GI50 [38]: > 10 µM (inactive)
GI50 [39]: > 10 µM (inactive)
GI50 [40]: > 10 µM (inactive)
GI50 [41]: > 10 µM (inactive)
GI50 [42]: > 10 µM
GI50 [43]: > 10 µM (inactive)
GI50 [44]: > 10 µM (inactive)
GI50 [45]: > 10 µM (inactive)
GI50 [46]: > 10 µM (inactive)
GI50 [47]: > 10 µM (inactive)
GI50 [48]: > 10 µM (inactive)
GI50 [49]: > 10 µM (inactive)
GI50 [50]: > 10 µM (inactive)
GI50 [52]: > 10 µM (inactive)
GI50 [53]: > 10 µM (inactive)
GI50 [54]: > 10 µM (inactive)
GI50 [55]: > 10 µM (inactive)
GI50 [56]: > 10 µM (inactive)
